Columns and labels:
[1] = tested on: Helminthosporium sigmoldeum; assay: Growth inhibitory activity on plant pathogenic microorganisms (colony diameter); assay type: cell-based; details: 100 mcg/ml, 28° C., 7 days, control medium 22.8 mm
Toxoplasma tachyzoites = assay: Antitoxoplasma activity in infected mice macrophage culture; assay type: cell-based, Toxoplasma (in mice macrophage); details: 0.1 ppm, 37° C., 48 hours
Description: (§1) A mice macrophage cultured on a TC-199 medium containing 20% of calf serum was infected with Toxoplasma tachyzoites (hereinafter referred to as "T. tachyzoites") and cultured at 37° C. for about 1 hour. Thereafter, the resulting culture was washed with a phosphate buffer having pH 7.2 to wash out non-infected T. tachyzoites and an ethanol solution of antibiotic TM-531 was added to the medium at an appropriate concentration of antibiotic TM-531. The medium containing the protozoa and antibiotic TM-531 was incubated at 37° C. for 48 hours and then stained with Trypan Blue, and the number of T. tachyzoites per 100 macrophages was counted to determine the antitoxoplasma activity of antibiotic TM-531 as compared with the number of T. tachyzoites per 100 macrophages in the control medium containing no antibiotic TM-531.

[2] = tested on: gram-negative bacteria and yeasts; assay: Physiological properties: activity on gram-negative bacteria and yeasts; details: in words
Saccharomyces cerevisiae = assay: Antimicrobial activity (MIC), agar medium; assay type: cell-based; details: potato dextrose agar
Description: (§2) The antimicrobial activity of antibiotic TM-531 was determined in terms of the minimum inhibitory concentration (MIC) using a heart infusion agar medium for the determination of activity on bacteria and a potato dextrose agar medium for the determination of activity on fungi and yeast.

[3] = tested on: Staphylococcus aureus TRP-23; assay: Antimicrobial activity (MIC), agar medium; assay type: cell-based; details: heart infusion agar
Description: as §2

Bacillus licheniformis = assay: Antimicrobial activity (MIC), agar medium; assay type: cell-based; details: heart infusion agar
Description: as §2

Micrococcus luteus NIHJ = assay: Antimicrobial activity (MIC), agar medium; assay type: cell-based; details: heart infusion agar
Description: as §2

[4] = tested on: Staphylococcus aureus Smith; assay: Antimicrobial activity (MIC), agar medium; assay type: cell-based; details: heart infusion agar
Description: as §2

[5] = tested on: Bacillus subtilis ATCC 6633; assay: Antimicrobial activity (MIC), agar medium; assay type: cell-based; details: heart infusion agar
Description: as §2

Trichophyton asteroides = assay: Antimicrobial activity (MIC), agar medium; assay type: cell-based; details: potato dextrose agar
Description: as §2

Candida albicans = assay: Antimicrobial activity (MIC), agar medium; assay type: cell-based; details: potato dextrose agar
Description: as §2

[6] = tested on: Aspergillus niger NHL 5088; assay: Antimicrobial activity (MIC), agar medium; assay type: cell-based; details: potato dextrose agar
Description: as §2

[7] = tested on: Staphylococcus epidermidis TPR-25; assay: Antimicrobial activity (MIC), agar medium; assay type: cell-based; details: heart infusion agar
Description: as §2

[8] = tested on: Pseudomonas aeruginosa IID 1052; assay: Antimicrobial activity (MIC), agar medium; assay type: cell-based; details: heart infusion agar
Description: as §2

Corynebacterium xerosis = assay: Antimicrobial activity (MIC), agar medium; assay type: cell-based; details: heart infusion agar
Description: as §2

Proteus vulgaris HX 19 = assay: Antimicrobial activity (MIC), agar medium; assay type: cell-based; details: heart infusion agar
Description: as §2

[9] = tested on: Escherichia coli NIHJ C-2; assay: Antimicrobial activity (MIC), agar medium; assay type: cell-based; details: heart infusion agar
Description: as §2

[10] = tested on: Staphylococcus aureus FDA 209 P; assay: Antimicrobial activity (MIC), agar medium; assay type: cell-based; details: heart infusion agar
Description: as §2

[11] = tested on: Penicillium citrinum IAM 7003; assay: Antimicrobial activity (MIC), agar medium; assay type: cell-based; details: potato dextrose agar
Description: as §2

[12] = tested on: Streptococcus faecalis ATCC 8043; assay: Antimicrobial activity (MIC), agar medium; assay type: cell-based; details: heart infusion agar
Description: as §2

[13] = tested on: Staphylococcus epidermidis TRP-13; assay: Antimicrobial activity (MIC), agar medium; assay type: cell-based; details: heart infusion agar
Description: as §2

Botrytis cinerea = assay: Growth inhibitory activity on plant pathogenic microorganisms (colony diameter); assay type: cell-based; details: 100 mcg/ml, 28° C., 7 days, control medium 47.7 mm
Gibberella fujikuroi = assay: as above; assay type: cell-based; details: 100 mcg/ml, 28° C., 7 days, control medium 27.6 mm
Glomerella cingulata = assay: as above; assay type: cell-based; details: 100 mcg/ml, 28° C., 7 days, control medium 27.3 mm
Piricularia sasakii = assay type: cell-based; details: 28° C., 7 days
[14] = tested on: gram-positive and plant pathogenic microorganisms; assay: Physiological properties: growth inhibitory activity; details: in words
Solubility = assay type: physicochemical
protozoa = assay: Physiological properties: activity on protozoa; details: protozoa as hog dysentery, coccidium, toxoplasma, trypanosome, malaria, etc.; in words
Eimeria tenella = assay: Activity against Eimeria tenella in infected chicks; assay type: in vivo, Eimeria tenella in male chicks (white leghorn); details: 0.01% by weight in feed, 8 days after infection
Description: Male chicks (white leghorn species) immediately after hatching were fed with a mixed feed for chicks containing no anti-coccidium agent until the test started. On the 8th day of feeding, health conditions of the test chicks were observed and the body weight was determined thereby dividing the test chicks into three groups, each group comprising 10 chicks and having an equal distribution of body weight. The test group was fed with a mixed feed for chicks containing 0.01% by weight of antibiotic TM-531 and the infected control group and the healthy group were fed with the same mixed feed but containing no antibiotic TM-531. On the 48th hour of feeding, each of chicks of the test group and the infected control group was infected with 9×10^4 mature oocysts of Eimeria tenella by oral administration. Eight days after infection, body weight increase (%), mortality (%) and O.P.G. [The number of oocysts (×10^4) present in 1 g of the content of caecum] were determined, and faeces conditions were observed and compared with those of the healthy group to determine the activity of antibiotic TM-531 against Eimeria tenella.

macrophage = assay: Toxic sign on macrophage by optical microscope; assay type: cell-based; details: mice macrophage culture with TM-531
Description: as §1

SMILES: COC1CCC(OC2CC(C3(C)CCC4(CC(O)C(C)C(C(C)/C=C(\C)C(=O)C(C)CC(C)C(=O)O)O4)O3)OC3(OC(C4OC(C)(O)C(C)CC4C)CC3C)C2C)OC1C (centres unmarked) [TM-531]
- Colony Diameter, TM-531 Containing Medium [1]: 15.4 mm
- Percent Macrophage infected with T. tachyzoites, 1 ~ 5/cell (Toxoplasma tachyzoites; T. tachyzoites 1 ~ 5/cell, control medium 30.8): 0%
- Percent Macrophage infected with T. tachyzoites, ≥6/cell (Toxoplasma tachyzoites; T. tachyzoites ≥6/cell, control medium 22.4): 0%
- effect on gram-negative bacteria and yeasts [2]: ineffective on gram-negative bacteria and yeasts
- Minimum Inhibitory Concentration (Saccharomyces cerevisiae): > 100 µg/mL
- Minimum Inhibitory Concentration [3]: 3.13 µg/mL
- Minimum Inhibitory Concentration (Bacillus licheniformis): 1.56 µg/mL
- Minimum Inhibitory Concentration (Micrococcus luteus NIHJ): 3.13 µg/mL
- Minimum Inhibitory Concentration [4]: 6.25 µg/mL
- Minimum Inhibitory Concentration [5]: 1.56 µg/mL
- Minimum Inhibitory Concentration (Trichophyton asteroides): > 100 µg/mL
- Minimum Inhibitory Concentration (Candida albicans): > 100 µg/mL
- Minimum Inhibitory Concentration [6]: > 100 µg/mL
- Minimum Inhibitory Concentration [7]: 3.13 µg/mL
- Minimum Inhibitory Concentration [8]: > 100 µg/mL
- Minimum Inhibitory Concentration (Corynebacterium xerosis): 1.56 µg/mL
- Minimum Inhibitory Concentration (Proteus vulgaris HX 19): > 100 µg/mL
- Minimum Inhibitory Concentration [9]: > 100 µg/mL
- Minimum Inhibitory Concentration [10]: 1.56 µg/mL
- Minimum Inhibitory Concentration [11]: > 100 µg/mL
- Minimum Inhibitory Concentration [12]: 6.25 µg/mL
- Minimum Inhibitory Concentration [13]: 3.13 µg/mL
- Colony Diameter, TM-531 Containing Medium (Botrytis cinerea): 46.7 mm
- Colony Diameter, TM-531 Containing Medium (Gibberella fujikuroi): 20.2 mm
- Colony Diameter, TM-531 Containing Medium (Glomerella cingulata): 13.4 mm
- Colony Diameter, TM-531 Containing Medium (Piricularia sasakii): 63.0 mm
- growth inhibitory activity [14]: exhibits growth inhibitory activity
- Solubility in organic solvents (Solubility; methanol, ethanol, acetone, ethyl acetate, diethyl ether, benzene, chloroform, hexane and petroleum ether): soluble in methanol, ethanol, acetone, ethyl acetate, diethyl ether, benzene, chloroform, hexane and petroleum ether
- Solubility in water (Solubility; water): insoluble in water
- effect on protozoa (protozoa): effective on protozoa
- O.P.G. (number of oocysts present in 1 g of the content of caecum) (Eimeria tenella; infected control 17.3, healthy control 0): 0 × 10^4
- Mortality (Eimeria tenella; infected control 60, healthy control 0): 0%
- Body Weight Increase (Eimeria tenella; infected control 77.0, healthy control 100.0): 105.1%
- Faeces Conditions (Eimeria tenella; infected control loose passage 100%, hemafecial 80%): Normal
- toxic sign on macrophage (macrophage): no toxic sign on macrophage

From patent US4269971A, “Antibiotic TM-531” (Taisho Pharmaceutical Co., Ltd., priority 1978, dated 1981)
